Source: patent EP4328302A1, “SYNTHESIS OF […] P450 MONO[…] A […]-FREE SYSTEM […] VESICLES” (Fraunhofer-Gesellschaft zur Förderung der angewandten …, priority 2022, dated 2024)

Molecular target: T1, CYP3A4 (Homo sapiens, UniProt P08684)
T1 construct: made in house; host or cells: cell-free protein synthesis in translationally active lysates of CHO-K1 or modified CHO (CHO-CPR, CHO-CPR/CYP3A4) cells; plasmid template from Biocat GmbH
Test: Luciferase based CYP3A4 activity assay (P450-Glo, Luciferin-IPA turnover) in the microsomal fraction after cell-free synthesis with heme supplementation
Assay type: biochemical
Protocol: Synthesis of proteins in translationally active lysates derived from cultured Chinese hamster ovary (CHO) cells and its modified variants CHO-CPR and CHO-CPR/CYP3A4 cells, was performed in batch based systems as previously described (Thoring et al. 2016). Accordingly designed plasmids, suitable for CFPS, coding for the CYP of interest, were applied as template. T7 RNA Polymerase, amino acids, an energy regeneration system and other supplements were added to the translationally active lysates with the additional supplementation of 5 µM heme (porcine) (Alfa Aesar Haverhill, Massachusetts, USA) to the reaction and a reaction temperature of 24 °C despite elsewise noted. For the isolation of the microsomes the translation mixture (TM) was centrifuged at 16.000 x g for 10 minutes at 4 °C. […]
For CYP activity measurement,"P450-Glo™ Assays" (Promega, Madison, Wisconsin, USA) were used. CYP1A2 activity was detected by Luciferase-ME turnover (V8772), CYP2B6 was detected by Luciferin-2B6 turnover (V8321) and CYP3A4 was detected by Luciferin-IPA turnover (V9001). […] For response condition adjustments, CYP activities were usually expressed as percentage of the highest CYP activity during the assay. For CYP activity quantification, a standard curve was prepared using beetles luciferin (Promega, Madison, Wisconsin, USA) according to the attached protocol. […]

T1 sequence (P08684 whole entry): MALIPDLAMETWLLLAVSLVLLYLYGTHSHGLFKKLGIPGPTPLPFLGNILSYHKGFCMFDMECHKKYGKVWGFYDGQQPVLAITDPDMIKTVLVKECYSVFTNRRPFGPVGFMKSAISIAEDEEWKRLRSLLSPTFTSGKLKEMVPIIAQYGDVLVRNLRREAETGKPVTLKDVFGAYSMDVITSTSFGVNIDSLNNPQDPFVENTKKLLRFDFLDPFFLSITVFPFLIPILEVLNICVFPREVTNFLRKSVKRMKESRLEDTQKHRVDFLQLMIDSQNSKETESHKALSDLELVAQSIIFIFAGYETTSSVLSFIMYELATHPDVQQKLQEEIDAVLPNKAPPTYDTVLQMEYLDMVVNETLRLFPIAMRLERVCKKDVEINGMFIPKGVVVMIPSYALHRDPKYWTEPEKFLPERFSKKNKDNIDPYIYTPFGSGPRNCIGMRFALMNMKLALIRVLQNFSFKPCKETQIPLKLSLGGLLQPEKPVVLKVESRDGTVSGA

**Q.** Which results are given for `C=CC1=C(C)c2cc3[n-]c(cc4[n-]c(cc5nc(cc1n2)C(C)=C5C=C)c(C)c4CCC(=O)O)c(CCC(=O)O)c3C.[Fe+2]` [heme]?
**A.** CYP3A4 activity compared to the control without supplementation (heme concentration of 5 µM in the cell-free reaction, microsomal fraction (MF), triplicate analysis, highest CYP3A4 activity): more than twofold higher; reduced activity compared to the 5 µM heme supplemented sample (supplementation of higher concentrations of heme (above 5 µM) to the cell-free reaction, CYP3A4 activity in MF): 60%
